Results on three compounds are retold here after patent publication US11186602B2, “Glucopyranosyl derivative and use thereof” (SUNSHINE LAKE PHARMA CO., LTD., priority 2018, dated 2021).

A word on the IC50: it is the concentration needed to halve the response being measured. Lower therefore signals greater potency.

For the assay, the target named is T1, human SGLT1 (Homo sapiens, UniProt P13866).
T1 construct: expressed in transfected cells; host or cells: CHO cells (Flp-in CHO)
T1 sequence (P13866 1-664): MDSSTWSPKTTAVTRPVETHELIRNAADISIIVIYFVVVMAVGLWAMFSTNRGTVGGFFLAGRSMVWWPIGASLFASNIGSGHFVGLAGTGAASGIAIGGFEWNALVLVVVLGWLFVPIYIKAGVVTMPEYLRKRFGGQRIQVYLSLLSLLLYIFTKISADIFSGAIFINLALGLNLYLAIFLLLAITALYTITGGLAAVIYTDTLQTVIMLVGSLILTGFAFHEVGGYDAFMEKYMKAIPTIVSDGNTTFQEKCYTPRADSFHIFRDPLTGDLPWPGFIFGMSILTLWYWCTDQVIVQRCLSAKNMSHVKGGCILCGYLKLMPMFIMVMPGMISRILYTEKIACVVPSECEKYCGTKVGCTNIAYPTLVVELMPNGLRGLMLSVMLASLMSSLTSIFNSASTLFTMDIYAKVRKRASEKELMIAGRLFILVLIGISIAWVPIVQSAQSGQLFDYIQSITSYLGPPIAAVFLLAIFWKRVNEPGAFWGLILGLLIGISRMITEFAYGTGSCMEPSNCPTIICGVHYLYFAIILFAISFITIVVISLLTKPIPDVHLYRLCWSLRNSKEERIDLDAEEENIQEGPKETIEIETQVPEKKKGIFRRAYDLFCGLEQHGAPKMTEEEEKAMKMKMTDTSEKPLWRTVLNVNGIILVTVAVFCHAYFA
Briefly: Determination of SGLT1 inhibitory activity ([14C]-AMG uptake in CHO cells expressing human SGLT1). The format is cell-based. As to conditions: CHO cells expressing human SGLT1, [14C]-AMG uptake, 37° C. for 1 hour. Here is the method: Mock-transfected FIP-in CHO cells (3×10^4 cells) and CHO cells expressing human SGLT1 gene were seeded into 96-well plates respectively. The cells were incubated for 12 hours. Each well of the 96-well plates was washed with 150 μL of sodium-free buffer once. To each well was added 50 μL of sodium-containing buffer containing test compounds having different concentrations and 0.5 μm [^14C]-AMG And the mixture in the well was incubated at 37° C. for 1 hour. To each well was added 150 μL of precooled sodium-free buffer to terminate the reaction. The cell pellet was washed with sodium free buffer three times and the residual liquid in well was removed. To each well was added 20 μL of precooled 100 mM NaOH, and the 96-well plates were vibrated at 900 rpm for 5 minutes. Scintillation fluid (80 μL) was added to each well which was then vibrated at 600 rpm for 5 minutes. The amount of 14C-AMG was quantitatively detected using liquid scintillation.
As to `Cc1ccc([C@]23OC[C@](C(C)(C)O)(O2)[C@@H](O)[C@H](O)[C@H]3O)cc1Cc1ccc(CCCC(=O)NC(C)(C)C(=O)NCCN2CCCC2)cc1` [Example 1, 2-Methyl-2-[4-[4-[[2-methyl-5-[(1S,2S,3S,4R,5S)-2,3,4-trihydroxy-1-(1-hydroxy-1-methyl-ethyl)-6,8-dioxabicyclo[3.2.1]octan-5-yl]phenyl]methyl]phenyl]butyrylamino]-N-(2-pyrrolidin-1-ylethyl)propionamide], half-maximal inhibition (IC50) was put at 1.73 nM.

On to `Cc1ccc([C@]23OC[C@](C(C)(C)O)(O2)[C@@H](O)[C@H](O)[C@H]3O)cc1Cc1ccc(CCCC(=O)NC2(C(=O)NCCN3CC[C@@H](F)C3)CCCCC2)cc1` [Example 7, N-[2-[(3R)-3-fluoropyrrolidin-1-yl]ethyl]-1-[4-[4-[[2-methyl-5-[(1S,2S,3S,4R,5S)-2,3,4-trihydroxy-1-(1-hydroxy-1-methyl-ethyl)-6,8-dioxabicyclo[3.2.1]octane-5-yl]phenyl]methyl]phenyl]butyrylamino]cyclohexyl formamide], for which the concentration for half-maximal inhibition (IC50) worked out at 1.16 nM.

`Cc1ccc([C@]23OC[C@](C(C)(C)O)(O2)[C@@H](O)[C@H](O)[C@H]3O)cc1Cc1ccc(CCCC(=O)N2CCC[C@H]2C(=O)NCCN(C)C)cc1` [Example 11, (2S)—N-(2-Dimethylaminoethyl)-1-[4-[4-[[2-methyl-5-[(1S,2S,3S,4R,5S)-2,3,4-trihydroxy-1-(1-hydroxy-1-methyl-ethyl)-6,8-dioxabicyclo[3.2.1]octan-5-yl]phenyl]methyl]phenyl]butyryl]pyrrolidine-2-carboxamide] had an IC50 of 5.75 nM.
